Laboratory results from PMC12040169 (PLOS Biology, 2025).

Experiment: in vitro
Conditions: human, hela cells, % viability

Cc1ccc(S(=O)(=O)N(CC(=O)Nc2cccnc2)c2ccc(C)c(C)c2)cc1 [CBK263974]
viability at 28.5 h, 10 µM: 75.4%

Cc1ccc(SCCNC(=O)COc2ccc(Cl)cc2Cl)cc1 [CBK263976]
viability at 28.5 h, 10 µM: 86.6%

COc1ccc(C)cc1S(=O)(=O)N1CCN(C(c2ccccc2)c2ccccc2)CC1 [CBK263977]
viability at 28.5 h, 10 µM: 91.8%

O=C1OC(c2ccco2)=N/C1=C/c1ccccc1OC(=O)c1ccco1 [CBK263980]
viability at 28.5 h, 10 µM: 103%

Cc1ccc(S(=O)(=O)N(CC(=O)NCc2ccco2)c2cc(C)cc(C)c2)cc1 [CBK263982]
viability at 28.5 h, 10 µM: 86.2%

Cc1ccc2cccc(OS(=O)(=O)c3ccc(Cl)c(C)c3Cl)c2n1 [CBK263984]
viability at 28.5 h, 10 µM: 53.7%

Cc1ccc(CSCCNC(=O)/C=C/c2ccccc2)cc1 [CBK263985]
viability at 28.5 h, 10 µM: 95.3%

O=C(NC(=S)Nc1ccc2[nH]c(=O)[nH]c2c1)c1ccc(F)cc1 [CBK263986]
viability at 28.5 h, 10 µM: 89.3%

O=C(NC(c1cccc([N+](=O)[O-])c1)c1cc(Cl)c2cccnc2c1O)c1cccnc1 (centres unmarked) [CBK263987]
viability at 28.5 h, 10 µM: 92.5%

CS(=O)(=O)N(Cc1ccc(Cl)cc1)c1ccc(C(=O)Nc2ccccc2C(F)(F)F)cc1 [CBK263988]
viability at 28.5 h, 10 µM: 101%

CS(=O)(=O)N(CC(=O)Nc1ccc2c(c1)OCO2)c1ccc(Oc2ccccc2)cc1 [CBK263989]
viability at 28.5 h, 10 µM: 91.5%

COc1ccc(C(=O)NC(c2ccc(OC)c(OC)c2)c2cc(Cl)c3cccnc3c2O)cc1 (centres unmarked) [CBK263992]
viability at 28.5 h, 10 µM: 96.3%

O=C(COc1ccccc1)NC(/C=C/c1ccccc1)c1cc(Cl)c2cccnc2c1O (centres unmarked) [CBK263994]
viability at 28.5 h, 10 µM: 104%

O=C(Nc1ccc(S(=O)(=O)N2CCCCC2)cc1)c1ccc(CN2CCOCC2)cc1 [CBK264002]
viability at 28.5 h, 10 µM: 111%

CCOC(=O)c1ccc(NC(=S)NC(=O)c2ccc(C)c(C)c2)cc1 [CBK264004]
viability at 28.5 h, 10 µM: 89.2%

S=C(NCCC(c1ccccc1)c1ccccc1)NC1CCCCC1 [CBK264007]
viability at 28.5 h, 10 µM: 96.3%

COc1ccc(C)cc1N(CC(=O)Nc1ccccc1C(=O)O)S(C)(=O)=O [CBK264009]
viability at 28.5 h, 10 µM: 94.4%

CC(=O)c1cc(C(=O)Nc2ccc(NC(=O)C(=O)O)cc2)oc1C [CBK264011]
viability at 28.5 h, 10 µM: 95.4%

O=C(/C=C/c1ccc2c(c1)OCO2)NCCSc1ccccn1 [CBK264012]
viability at 28.5 h, 10 µM: 97.7%

O=C(CC1Sc2ccccc2NC1=O)Nc1ccccc1[N+](=O)[O-] (centres unmarked) [CBK264014]
viability at 28.5 h, 10 µM: 94.8%

Cc1oc2c(c1C(=O)NCC(=O)NCC(=O)O)CCCC2 [CBK264015]
viability at 28.5 h, 10 µM: 97.6%

Cc1cc(C)cc(N2C(=O)/C(=C/c3ccc(OC(C)C(=O)O)cc3)C(=O)NC2=S)c1 (centres unmarked) [CBK264016]
viability at 28.5 h, 10 µM (bulk resorufin, single well): 93.9%

Cc1ccc(Cl)cc1N(CC(=O)Nc1ccccc1C(=O)O)S(C)(=O)=O [CBK264020]
viability at 28.5 h, 10 µM: 89.5%

COc1ccc(Br)cc1S(=O)(=O)NCc1cccnc1 [CBK264023]
viability at 28.5 h, 10 µM: 90.7%

CCOc1ccc(OCC)c(S(=O)(=O)n2nc(C)cc2C)c1 [CBK264024]
viability at 28.5 h, 10 µM: 94.6%

C=CCc1cc(/C=C2\C(=O)NC(=O)N(c3ccc4c(c3)OCO4)C2=O)cc(OC)c1OCC(=O)O [CBK264025]
viability at 28.5 h, 10 µM (bulk resorufin, single well): 98.5%

COc1ccc(CSCC(N)C(=O)O)cc1Br (centres unmarked) [CBK264026]
viability at 28.5 h, 10 µM: 94%

CSCCC(NC(=O)c1c(C)oc2c1CCCC2)C(=O)O (centres unmarked) [CBK264029]
viability at 28.5 h, 10 µM: 82%

Cc1ccc(N(CC(=O)Nc2cc(Cl)ccc2C)S(C)(=O)=O)cc1 [CBK264030]
viability at 28.5 h, 10 µM: 92.9%

COc1ccc(N(CC(=O)Nc2cccnc2)S(=O)(=O)c2ccc(C)cc2)cc1 [CBK264033]
viability at 28.5 h, 10 µM: 99.6%

Cc1ccc(S(=O)(=O)N(CC(=O)Nc2ccccc2C(=O)O)c2ccccc2)cc1 [CBK264034]
viability at 28.5 h, 10 µM: 94.6%

COc1ccc(C(=O)NC(c2ccccc2Cl)c2cc(Cl)c3cccnc3c2O)cc1 (centres unmarked) [CBK264036]
viability at 28.5 h, 10 µM: 88%

COc1ccc(C(=O)NC(=S)Nc2ccc(O)c(-c3nc4cc(C)c(C)cc4o3)c2)cc1[N+](=O)[O-] [CBK264039]
viability at 28.5 h, 10 µM: 111%

Cc1ccc(N2C(=O)/C(=C/c3ccc(OCC(=O)O)c(Cl)c3)C(=O)NC2=S)c(C)c1 [CBK264043]
viability at 28.5 h, 10 µM (bulk resorufin, single well): 109%

CC(=O)N/C(=C/c1ccccc1)C(=O)NCCC(=O)O [CBK264046]
viability at 28.5 h, 10 µM: 87.2%

COc1cccc(C(=O)NC(c2ccc(OC)c(OC)c2)c2cc(Cl)c3cccnc3c2O)c1 (centres unmarked) [CBK264048]
viability at 28.5 h, 10 µM: 95.4%

COc1ccc(Br)cc1S(=O)(=O)NCCCN1CCOCC1 [CBK264050]
viability at 28.5 h, 10 µM: 103%

CC(C)(C)c1cc(C(=O)O)c(CN2CCOCC2)o1 [CBK264052]
viability at 28.5 h, 10 µM: 88.7%

Cc1ccccc1C(=O)Nc1cccc(-c2nnc(SCC(=O)c3ccc(Cl)cc3)n2C)c1 [CBK264053]
viability at 28.5 h, 10 µM: 89.3%

OC(Cn1nnc2ccccc21)Cn1c(-c2ccccc2)c(-c2ccccc2)c2ccc3ccccc3c21 (centres unmarked) [CBK264054G]
viability at 28.5 h, 10 µM: 92.9%

COc1cc2c(cc1NC(=O)C(C)Oc1ccccc1)oc1ccccc12 (centres unmarked) [CBK264061]
viability at 28.5 h, 10 µM: 91.3%

CC(Oc1ccccc1)C(=O)Nc1cccc(C#N)c1 (centres unmarked) [CBK264062]
viability at 28.5 h, 10 µM: 91%

O=C(CSc1nc2sc3c(c2c(=O)[nH]1)CCCC3)NCCN1CCOCC1 [CBK264064]
viability at 28.5 h, 10 µM: 111%

Cc1ccc(C(=O)C(C)OC(=O)c2cc(-c3ccccc3)nc3ccccc23)cc1 (centres unmarked) [CBK264067]
viability at 28.5 h, 10 µM: 99.8%

COc1ccc(S(=O)(=O)Nc2cccc(C(=O)O)c2)cc1C(=O)O [CBK264069]
viability at 28.5 h, 10 µM: 86.8%

COc1ccc(S(=O)(=O)NCc2ccc3c(c2)OCO3)cc1C(=O)O [CBK264070]
viability at 28.5 h, 10 µM: 97.6%

O=C(O)CCc1nc2ccccc2s1 [CBK264071]
viability at 28.5 h, 10 µM: 115%

COc1cc(NC(=O)c2ccc3c(c2)C(=O)N(c2c(C)cc(C)cc2C)C3=O)c(C(=O)O)cc1OC [CBK264074]
viability at 28.5 h, 10 µM: 91.1%

COc1ccc(NC2c3cccc4cccc(c34)C2NS(=O)(=O)c2ccccc2)cc1 (centres unmarked) [CBK264075]
viability at 28.5 h, 10 µM: 97.4%

COc1cc(/C=C/C(=O)O)cc(S(=O)(=O)N2CCOCC2)c1OC [CBK264078]
viability at 28.5 h, 10 µM: 117%

CC1=C(C(=O)OCC(=O)c2ccc(C)cc2)C2C=C(Br)C=CC2N=C1c1ccc(C)cc1 (centres unmarked) [CBK264079]
viability at 28.5 h, 10 µM: 94%

O=C(O)CNC(=O)CN1C(=O)c2ccc(C(=O)O)cc2C1=O [CBK264080]
viability at 28.5 h, 10 µM: 90.8%

Cc1ccc(C(=O)COC(=O)c2cccc(C)c2O)cc1[N+](=O)[O-] [CBK264081]
viability at 28.5 h, 10 µM: 90.5%

COc1ccc(C(=O)C(OC(=O)c2cc(O)nc3ccccc23)c2ccccc2)cc1 (centres unmarked) [CBK264083]
viability at 28.5 h, 10 µM: 97.1%

COc1ccc(S(=O)(=O)Nc2ccccc2C(=O)O)cc1C(=O)O [CBK264084]
viability at 28.5 h, 10 µM: 99.9%

Cc1cccc2c(C(=O)OCC(=O)c3ccc([N+](=O)[O-])cc3)cc(-c3ccc(Cl)cc3)nc12 [CBK264088]
viability at 28.5 h, 10 µM: 94.5%

COc1cccc(NC(=O)CN2CCN(c3nc4ccc([N+](=O)[O-])cc4s3)CC2)c1 [CBK264089]
viability at 28.5 h, 10 µM: 93.7%

N#Cc1cc(Nc2ccc(Cc3ccncc3)cc2)c([N+](=O)[O-])cc1C#N [CBK264090]
viability at 28.5 h, 10 µM: 93.9%

Cc1noc(NS(=O)(=O)c2ccc(NC(=O)CCN3C(=O)c4ccccc4C3=O)cc2)c1C [CBK264091]
viability at 28.5 h, 10 µM: 96.1%

CS(=O)(=O)N(Cc1ccc(Cl)cc1)c1ccc(C(=O)Nc2ccccc2C(=O)O)cc1 [CBK264093]
viability at 28.5 h, 10 µM: 105%

Cc1ccc(S(=O)(=O)N(CC(=O)Nc2cccnc2)c2cccc(Br)c2)cc1 [CBK264094]
viability at 28.5 h, 10 µM: 62.8%

O=C(Nc1cccnc1)c1ccc(CN2CCC(Cc3ccccc3)CC2)cc1 [CBK264095]
viability at 28.5 h, 10 µM: 94.9%

Cc1ccc(C(=O)COC(=O)CCN2C(=O)C3C4CCC(C4)C3C2=O)cc1[N+](=O)[O-] (centres unmarked) [CBK264096]
viability at 28.5 h, 10 µM: 91.5%

O=C(Nc1cc(-c2nc3ncccc3o2)ccc1Cl)c1ccc(-c2ccccc2[N+](=O)[O-])o1 [CBK264097]
viability at 28.5 h, 10 µM: 89%

COc1ccc(NC(=O)C(OC)c2ccccc2)cc1Cl (centres unmarked) [CBK264098]
viability at 28.5 h, 10 µM: 95.2%

O=C(Cn1c(NCCCO)nc2ccccc21)c1ccco1 [CBK264099B]
viability at 28.5 h, 10 µM: 94.7%

CC(=O)Nc1ccc(S(=O)(=O)/N=C(/Nc2nc(C)cc(C)n2)Nc2ccccc2C)cc1 [CBK264101]
viability at 28.5 h, 10 µM: 95.9%

COc1ccccc1NC(=O)c1c(NC(=O)Cc2ccccc2)sc2c1CCC(C(C)(C)C)C2 (centres unmarked) [CBK264102]
viability at 28.5 h, 10 µM: 94.1%

Cc1ccc(C(=O)NCCNC(=O)CN2CCCC2)cc1 [CBK264103]
viability at 28.5 h, 10 µM: 92.5%

O=C(Nc1cc(-c2nc3ncccc3o2)ccc1Cl)c1ccc2c(c1)OCCO2 [CBK264105]
viability at 28.5 h, 10 µM: 95%

Cc1ccccc1N1C(=O)c2ccc(C(=O)OCC(=O)c3ccc(Cl)c([N+](=O)[O-])c3)cc2C1=O [CBK264108]
viability at 28.5 h, 10 µM: 91.3%

Cc1cccc(OCC(=O)Nc2ccc(S(=O)(=O)N3CCOCC3)cc2)c1 [CBK264110]
viability at 28.5 h, 10 µM: 94.6%

COc1ccc(Br)cc1C(=O)Nc1cc(-c2nc3ccccc3[nH]2)ccc1Cl [CBK264112]
viability at 28.5 h, 10 µM: 93.6%

Cc1ccc(NC(=O)CSc2nnc(COc3ccc(Cl)cc3Cl)o2)cc1Cl [CBK264113]
viability at 28.5 h, 10 µM: 90.9%

O=C(CSCc1cccc(Cl)c1)Nc1cccnc1 [CBK264114]
viability at 28.5 h, 10 µM: 95.9%

Cc1ccc(S(=O)(=O)N(CC(=O)Nc2cccnc2)c2cc(C)ccc2C)cc1 [CBK264115]
viability at 28.5 h, 10 µM: 61.7%

Cc1ccc(S(=O)(=O)NCCSCc2cccc(Cl)c2)cc1[N+](=O)[O-] [CBK264116]
viability at 28.5 h, 10 µM: 93.4%

CS(=O)(=O)N(Cc1ccccc1)c1ccc(C(=O)Nc2ccccc2C(=O)O)cc1 [CBK264117]
viability at 28.5 h, 10 µM: 108%

c1csc(-c2nc3[nH]c4ccccc4n3n2)c1 [CBK264118]
viability at 28.5 h, 10 µM: 102%

O=C(CCSc1ccccc1)Nc1ccccc1C(=O)O [CBK264119]
viability at 28.5 h, 10 µM: 92.1%

CN1CCN(C(=O)CN(c2cccc([N+](=O)[O-])c2)S(=O)(=O)c2ccccc2)CC1 [CBK264121]
viability at 28.5 h, 10 µM: 87.6%

COc1ccccc1NC(=O)c1c(NC(=O)c2cccs2)sc2c1CCC(C(C)(C)C)C2 (centres unmarked) [CBK264123]
viability at 28.5 h, 10 µM: 100%

O=C(CCN1C(=O)C2C3CCC(C3)C2C1=O)OCC(=O)c1ccc(Cl)c([N+](=O)[O-])c1 (centres unmarked) [CBK264124]
viability at 28.5 h, 10 µM: 95.2%
